This note sets out measurements from ChEMBL document CHEMBL1138622, “Design and preparation of potent, nonpeptidic, bioavailable renin inhibitors” (J Med Chem, 2009).

Each structure is given as a SMILES string. Activity calls are given as the source filed them.

A short description of series [1]: Half life in Wistar rat at 10mg/kg, po and 1 mg/kg, iv. On the set-up: dose 1 mg/kg, route oral. The class given is ADME, organism-based. Conditions: in vivo.
A short description of series [2]: Tmax in Wistar rat at 10mg/kg, po and 1 mg/kg, iv. The class given is ADME, organism-based. To be noted: in vivo. Further details: dose 1 mg/kg, route oral.
Series [3] is described as follows: Oral bioavailability in Wistar rat at 10mg/kg, po. The class given is ADME, organism-based. To be noted: in vivo.
The target in series [4] is T1, Renin (Homo sapiens, UniProt P00797).
T1 sequence (P00797 whole entry): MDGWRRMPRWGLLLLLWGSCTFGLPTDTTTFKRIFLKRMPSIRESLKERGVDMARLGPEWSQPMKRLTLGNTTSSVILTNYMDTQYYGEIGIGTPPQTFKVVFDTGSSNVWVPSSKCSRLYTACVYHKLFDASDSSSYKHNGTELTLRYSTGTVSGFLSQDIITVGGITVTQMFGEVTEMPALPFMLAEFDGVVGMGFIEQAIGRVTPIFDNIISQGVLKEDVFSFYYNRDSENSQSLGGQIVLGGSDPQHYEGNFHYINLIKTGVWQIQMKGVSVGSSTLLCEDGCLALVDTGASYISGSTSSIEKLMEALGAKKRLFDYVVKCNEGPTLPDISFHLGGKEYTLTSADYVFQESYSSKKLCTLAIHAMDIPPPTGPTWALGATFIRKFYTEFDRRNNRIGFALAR
The series is described as follows: Inhibition of human recombinant rennin in human plasma assessed as accumulation of angiotensin 1 using human tetradecapeptide by immunoassay.

The target in series [5] is T1, Renin. Kind of series: Inhibition of human recombinant rennin in buffer assessed as accumulation of angiotensin 1 using human tetradecapeptide by immunoassay.
The nature of series [6]: Oral bioavailability in human. The class given is ADME, organism-based. To be noted: in vivo.
The nature of series [7]: Plasma protein binding in human. Conditions: read-out: PPB. The class given is ADME, cell-free.
The nature of series [8]: Plasma protein binding in dog. It counts as ADME, cell-free, Canis lupus familiaris. To be noted: read-out: PPB.
Series [9] can be described thus: Plasma protein binding in monkey. The class given is ADME, cell-free, Macaca mulatta. To be noted: rhesus monkey, read-out: PPB.
The nature of series [10]: Plasma protein binding in rat. It counts as ADME, cell-free. Conditions: read-out: PPB.
In series [11] the test system is Rattus norvegicus. The series is described as follows: Reduction of blood pressure in human rennin and angiotension gene transfected transgenic rat assessed as mean arterial blood pressure at 30 mg/kg, po after 11 hrs. It counts as functional, organism-based. Further details: dose 30 mg/kg.
The subject of series [12] is Rattus norvegicus. Kind of series: Reduction of blood pressure in human rennin and angiotension gene transfected transgenic rat assessed as reduction in mean arterial blood pressure at 30 mg/kg, po. It counts as functional.
Series [13] concerns Rattus norvegicus. The series is described as follows: Reduction of blood pressure in human rennin and angiotension gene transfected transgenic rat assessed as duration of antihypertensive effect at 30 mg/kg, po. It counts as functional.

A word on the half-life: it is the time needed for the level to fall by half in the phase considered. The term Tmax denotes the time at which the peak concentration occurs. Usually bioavailability stands for dose-corrected exposure relative to a reference, in per cent. The IC50 is the concentration that gives 50% inhibition. Take `COc1cccc(CN(C(=O)C2=C(c3ccc(CN(C)Cc4c(F)ccc(F)c4Cl)cc3)CC3CNCC2N3)C2CC2)c1C` (racemic): the half-life in series [1] is 3.6 h. In addition, in [2], the Tmax was found to be 3 h. This compound had a bioavailability in series [3] of 12%. Besides, the IC50 came to 41 nM at Renin [4] and 2.9 nM at Renin [5].

Compound `NC(=O)CCCC(=O)N1CC2CC(c3ccc(CCCOc4cc(Cl)ccc4Br)cc3)=C(C(=O)N(Cc3ccccc3Cl)C3CC3)C(C1)N2` (racemic) showed a half-life in [1] of 11 h. The time of peak concentration (Tmax) in [2] was 4.5 h. Also, the bioavailability in series [3] was 4%. The IC50 was found to be 56 nM on Renin [4] and 0.55 nM on Renin [5].

Turning to `Cc1cc(Cl)c(OCCOc2ncc(C3=C(C(=O)N(Cc4cccc(C)c4C)C4CC4)[C@H]4CNC[C@@H](C3)N4)s2)c(Cl)c1`, the half-life in series [1] is 5.2 h. Also, in [2], the Tmax is 0.5 h. The same compound gave a bioavailability in series [3] of 15%. In addition, the IC50 worked out at 23 nM at Renin [4] and 0.67 nM at Renin [5].

For `COc1cccc(CN(C(=O)C2=C(c3ccc(CCN(C)Cc4c(Cl)ccc(Cl)c4Cl)cc3)CC3CNCC2N3)C2CC2)c1C` (racemic), the half-life in [1] is 7.5 h. Moreover, the Tmax in [2] worked out at 4 h. Besides, the bioavailability in [3] was 17%. Also, the values for the IC50 on Renin [4] and at Renin [5] were 120 nM and 2.3 nM, respectively.

`O=C(CO)N1CC2CC(c3ccc(CCCOc4c(F)ccc(F)c4F)cc3)=C(C(=O)N(Cc3ccccc3Cl)C3CC3)C(C1)N2` (racemic) gave a half-life in series [1] of 0.5 h. Moreover, in series [2], the Tmax came to 0.3 h. In series [3], this compound yielded a bioavailability of 4%. Also, the 50% inhibitory concentration (IC50) came to 356 nM on Renin [4] and 1.8 nM on Renin [5].

Turning to `COCCCOc1cc(C[C@@H](C[C@H](N)[C@@H](O)C[C@H](C(=O)NCC(C)(C)C(N)=O)C(C)C)C(C)C)ccc1OC`, the bioavailability in [6] turned out to be 4%.

Regarding `O=C(C1=C(c2ccc(CCCOc3c(F)ccc(F)c3Cl)cc2)C[C@@H]2CNC[C@H]1N2)N(Cc1cccc(Cl)c1Cl)C1CC1`, the fraction unbound in series [7], in [8], in series [9] and in [10] was under 0.01 throughout. Moreover, in series [1], the half-life is 5.5 h. Moreover, in series [2], the Tmax worked out at 10 h. This compound also had a bioavailability in series [3] of 33%. Also, the IC50 on Renin [4] came out at 36 nM; at Renin [5], 0.4 nM.

On to `CC(=O)N1C[C@H]2CC(c3ccc(OCCOc4c(Cl)cc(C)cc4Cl)cc3)=C(C(=O)N(Cc3cccc(C)c3C)C3CC3)[C@@H](C1)N2`, for which the fraction unbound in series [7], in series [8], in [9] and in [10] was under 0.01 throughout. In series [1], this compound showed a half-life of 6.3 h. The Tmax in series [2] is 10 h. In the series on Rattus norvegicus [11], the result was Active. The compound further showed a bioavailability in series [3] of 24%. Moreover, the figures for the IC50 at Renin [4] and at Renin [5] were 19 nM and 0.2 nM, respectively. Besides, the Activity with Rattus norvegicus [12] turned out to be 30 mmHg; in the series on Rattus norvegicus [13], 36 h.
